For nine compounds, IC50 results are on record in patent US12448382B2, “Heterocyclic compounds for mediating tyrosine kinase 2 activity” (GUANGZHOU INNOCARE PHARMA TECH CO., LTD., priority 2019, dated 2025).

SMILES strings stand for the structures.

In test [1] the target is T1, human recombinant JAK2 protein (Homo sapiens, UniProt O60674).
T1 construct: purchased Carna Biosciences 08-045
The test is described as follows: JAK2 Inhibition Assay (HTRF kinase assay). The class given is biochemical. The note with it: human recombinant JAK2, 2.5 μM ATP substrate solution. The method, then:
The effect of the compounds of the present invention on the enzymatic activity of JAK2 was assessed by detecting the substrate phosphorylation level in a kinase reaction using the HTRF kinase assay detection kit (Cisbio, Cat. No. 62TK0PEC).
(§1) The experimental method is generally described below:
A reaction buffer contained the following components: an enzyme reaction buffer (1×), 5 mM MgCl2, 1 mM DTT and 0.01% Brij35 from the kit. A JAK2 kinase solution contained a human recombinant JAK2 protein (Carna Biosciences, 08-045) diluted in the reaction buffer to 0.15 ng/μL. A substrate reaction solution contained 2.5 μM ATP and 0.25 μM of a biotinylated tyrosine kinase substrate from the kit in the reaction buffer. A detection solution contained 0.1 ng/μL Eu^3+-labeled cage antibody (Cisbio, 61T66KLB) and 12.5 nM streptavidin-labeled XL665 (Cisbio, 610SAXLB) in the reaction buffer.
(§2) The test compound was dissolved in DMSO to 10 μM, followed by a serial 4-fold dilution with DMSO to a minimum concentration of 0.061 nM. Each concentration was further diluted 40-fold with the reaction buffer.
To a 384-well assay plate (Corning, 3674) were added 4 μL of compound solution and 2 μL of JAK2 kinase solution. The mixture was mixed and incubated at room temperature for 15 minutes, and then added with 4 μL of the substrate reaction solution. After further incubation at room temperature for 30 minutes, the reaction mixture was added with an equal volume of 10 μL detection solution and allowed to stand at room temperature for 30 minutes. An Envision plate reader (Perkin Elmer) was then used to measure the progress of the reaction at 620 nm and 665 nm. The ratio of absorbances at 665 nm and 620 nm was positively correlated with the degree of substrate phosphorylation, therefore the activity of JAK2 kinase was detected. In the experiment, the group without JAK2 kinase protein was treated as the 100% inhibition group, and the group with JAK2 kinase protein but not the test compound was treated as the 0% inhibition group. The percentage of inhibition on JAK2 kinase activity by the test compound was calculated using the following formula: Percentage of inhibition=100−100*(ratiocompound−ratio100% inhibition)/(ratio0% inhibition−ratio100% inhibition)
The IC50 value of the test compound was calculated from 8 concentration points using the XLfit softwere (ID Business Solutions Ltd., UK) by the following formula: Y=Bottom+(Top−Bottom)/(1+10^((log IC50−X)×slope factor))
Where Y was the percentage of inhibition, X was the logarithm of the concentration of the test compound. Bottom was the bottom plateau value of the S-shaped curve, Top was the top plateau value of the S-shaped curve, and slope factor was the slope coefficient of the curve.
For orientation: In TR-FRET formats the signal depends on donor and acceptor labels being close together.

For test [2], the target named is T2, human recombinant TYK2 protein (Homo sapiens, UniProt P29597).
T2 construct: purchased Carna Biosciences 08-147
T2 sequence (P29597 871-1187 limits assumed): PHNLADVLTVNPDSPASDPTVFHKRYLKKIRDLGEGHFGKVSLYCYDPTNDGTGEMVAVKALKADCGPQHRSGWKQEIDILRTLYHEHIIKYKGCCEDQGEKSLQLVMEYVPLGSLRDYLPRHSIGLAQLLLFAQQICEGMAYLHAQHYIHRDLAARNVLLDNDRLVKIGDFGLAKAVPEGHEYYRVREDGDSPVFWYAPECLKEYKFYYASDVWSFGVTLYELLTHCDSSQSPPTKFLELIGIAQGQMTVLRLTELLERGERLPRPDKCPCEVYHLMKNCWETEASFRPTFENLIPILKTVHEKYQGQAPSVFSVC
In words: TYK2 Inhibition Assay (HTRF kinase assay). In kind it is biochemical. The conditions noted are these: human recombinant TYK2, 11.25 μM ATP substrate solution. On the procedure:
The effect of the compounds of the present invention on the enzymatic activity of TYK2 was assessed by detecting the substrate phosphorylation level in a kinase reaction using the HTRF kinase assay detection kit (Cisbio, Cat. No. 62TK0PEC).
as §1
A reaction buffer contained the following components: an enzyme reaction buffer (1×), 5 mM MgCl2 mM DTT and 0.01% Brij35 from the kit. A TYK2 kinase solution contained human recombinant TYK2 protein (Carna Biosciences, 08-147) diluted in the reaction buffer to 0.25 ng/μL. A substrate reaction solution contained 11.25 μM ATP and 0.5 μM of a biotinylated tyrosine kinase substrate from the kit in the reaction buffer. A detection solution contained 0.1 ng/μL Eu^3+-labeled cage antibody (Cisbio, 61T66KLB) and 25 nM streptavidin-1 added XL665 (Cisbio, 610SAXLB) in the reaction buffer.
as §2
To a 384-well assay plate (Corning, 3674) were added 4 μL of compound solution and 2 μL of TYK2 kinase solution. The mixture was mixed and incubated at room temperature for 15 minutes, and then added with 4 μL of the substrate reaction solution. After further incubation at room temperature for 40 minutes, the reaction mixture was added with an equal volume of 10 μL detection solution and allowed to stand at room temperature for 30 minutes. An Envision plate reader (Perkin Elmer) was then used to measure the progress of the reaction at 620 nm and 665 nm. The ratio of absorbances at 665 nm and 620 nm was positively correlated with the degree of substrate phosphorylation, therefore the activity of TYK2 kinase was detected. In the experiment, the group without TYK2 kinase protein was treated as the 100% inhibition group, and the group with TYK2 kinase protein but not the test compound was treated as the 0% inhibition group. The percentage of inhibition on TYK2 kinase activity by the test, compound was calculated using the following formula: Percentage of inhibition=100−100*(ratiocompound−ratio100% inhibition)/(ratio0% inhibition−ratio100% inhibition)
The IC50 value of the test compound was calculated from 8 concentration points using the XLfit software (ID Business Solutions Ltd., UK) by the following formula: Y=Bottom+(Top−Bottom)/(1+10^((log IC50−X)slope factor))
(§3) Where Y was the percentage of inhibition, X was the logarithm of the concentration of the test compound, Bottom was the bottom plateau value of the S-shaped curve, Top was the top plateau value of the S-shaped curve, and slope factor was the slope coefficient of the curve.

Test [3] concerns IL-12-induced IFN-γ secretion in NK92 cells. The test is described as follows: Inhibition of IL-12-induced IFN-γ Secretion in NK92 Cells (ELISA). The class given is cell-based, human. The note with it: Homo sapiens, 24 hours incubation, 8 concentration points, read-out: IC50 (NK92_IL12/IFNγ). The method, then: Inhibition of IL-12-induced IFN-γ Secretion in NK92 Cells
The effect of the compounds of the present invention on IFN-γ secretion induced by IL-12 in NK92 cells was evaluated by an enzyme-linked immunosorbent assay (ELISA).
IL-12 receptor is mainly expressed in activated T-cells, NK cells (NK92 is a NK cell line), DC cells, and B-cells. When binding to IL-12, it activates JAK2/TYK2 signal transduction pathway within NK cells and T lymphocytes, thereby inducing secretion of IFN-γ.
as §1
The test compound was dissolved in DMSO to 2.5 mM, followed by a serial 4-fold dilution with DMSO to a minimum concentration of […]. Each concentration was further diluted 50-fold with an FBS-free MEMα medium (Gibco, 12561-056).
NK92 cells (Nanjing Cobioer, CBP60980) were cultured in a complete MEMα medium containing 12.5% FBS (Ausbian, VS500T), 12.5% horse serum (Gibco, 16050-122), 0.02 mM folic acid (Sigma, F8758), 0.2 mM inositol (Sigma, 17850), 0.55 mM β-mercaptoethanol (Gibco, 21985-023), 200 U/mL IL-2 (R&D Systems, 202-1L), and 100 U/mL penicillin (Thermofisher, 15140122). When covering 80-90% of the culture container surface, the cells were dispersed and plated on a 96-well plate (Thermofisher, 167425) with 100,000 cells per well (80 μL of the complete MEMα medium without IL-2). The 96-well plate was then incubated overnight in a 37° C./5% CO2 incubator.
After overnight incubation, 10 μL of the test compound and 10 μL of 50 ng/mL IL-12 (R & D Systems, 219-1L) were added to each well and mix gently, and the 96-well plate was incubated in the 37° C./5% CO2 incubator for additional 24 hours. The plate as centrifuged at 800 rpm for 10 minutes at room temperature and 50 μL of the supernatant from each well was transferred to another 96-well plate (Sigma, CLS3695) coated with anti-IFN-γ antibody. The amount of IFN-γ secretion was detected following the instruction from the Human IFN-γ DuoSet ELISA kit (R & D Systems, DY285B). In the experiment, the group with IL-12 and the test compound being replaced with the MEMα medium was the non-stimulated control group (100% inhibition), and the group with IL-12 and 0.2% DMSO was the stimulated group (0% inhibition). The percentage of inhibition on IL-12 induced IFN-γ secretion in NK-92 cells by the test compound was calculated using the following formula: Percentage of inhibition=100−100*(signalcompound−signalnon-stimulated control)/(signalstimulated control−signalnon-stimulated control)
The IC50 value of the test compound was calculated front 8 concentration points using the XLfit software (ID Business Solutions Ltd., UK) by the following formula: Y=Bottom+(Top−Bottom)/(1+10^((log IC50−X)×slope factor))
as §3
(In general: An ELISA detects its analyte on a solid surface through an enzyme-linked reagent.)

T1 sequence (O60674 826-1132 limits assumed): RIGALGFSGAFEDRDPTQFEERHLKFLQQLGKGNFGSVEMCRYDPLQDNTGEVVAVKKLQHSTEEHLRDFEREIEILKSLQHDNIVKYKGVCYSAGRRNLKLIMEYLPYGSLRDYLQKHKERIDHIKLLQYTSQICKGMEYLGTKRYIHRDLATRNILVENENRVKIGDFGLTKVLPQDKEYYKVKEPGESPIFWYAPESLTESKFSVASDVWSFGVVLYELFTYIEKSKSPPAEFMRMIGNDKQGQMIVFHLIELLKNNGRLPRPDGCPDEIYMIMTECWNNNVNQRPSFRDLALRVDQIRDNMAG

Consider `Cn1cc(Nc2ncc(Cl)c(N3C[C@H]4CN(C(=O)C5CC5)C[C@@]4(C)C3)n2)cn1` (racemic) [Compound 62, cis-(5-(5-chloro-2-((1-methyl-1H-pyrazol-4-yl)amino)pyrimidin-4-yl)-3a-methylhexahydropyrrolo[3,4-c]pyrrol-2(1H)-yl)(cyclopropyl)methanone], for which the IC50 turned out to be 2.6 nM in test [1], 0.6 nM in test [2] and 269 nM in test [3].

On to `Cn1cc(Nc2ncc(Cl)c(N3C[C@]4(C)CN(CC(F)(F)F)C[C@]4(C)C3)n2)cn1` [Compound 40, 5-chloro-4-((3aR,6aS)-3a,6a-dimethyl-5-(2,2,2-trifluoroethyl)hexahydropyrrolo[3,4-c]pyrrol-2(1H)-yl)-N-(1-methyl-1H-pyrazol-4-yl)pyrimidin-2-amine], for which the IC50 in test [1] stood at 1.2 nM; in test [2], 0.4 nM; in test [3], 422 nM.

As to `CC(=O)N1C[C@@]2(C)CN(c3nc(Nc4cnn(C)c4)ncc3Cl)C[C@@]2(C)C1` [Compound 19, 1-((3aR,6aS)-5-(5-chloro-2-((1-methyl-1H-pyrazol-4-yl)amino)pyrimidin-4-yl)-3a,6a-dimethylhexahydropyrrolo[3,4-c]pyrrol-2(1H)-yl)ethan-1-one], the values for the IC50 in test [1], in test [2] and in test [3] were 8.8 nM, 14 nM and 713 nM, respectively.

On to `Cn1cc(Nc2nccc(N3C[C@]4(C)CN(CCC#N)C[C@]4(C)C3)n2)cn1` [Compound 7, 3-((3aR,6aS)-3a,6a-dimethyl-5-(2-((1-methyl-1H-pyrazol-4-yl)amino)pyrimidin-4-yl)hexahydropyrrolo[3,4-c]pyrrol-2(1H)-yl)propanenitrile], for which the IC50 was determined as 138 nM in test [1] and 186 nM in test [2].

Take `Cn1cc(Nc2ncc(C#N)c(N3C[C@]4(C)CN(C(=O)C5CC5)C[C@]4(C)C3)n2)cn1` [Compound 15, 4-((3aR,6aS)-5-(cyclopropanecarbonyl)-3a,6a-dimethlhexahydropyrrolo[3,4-c]pyrrol-2(1H)-yl)-2-((1-methyl-1H-pyrazol-4-yl)amino)pyrimidine-5-carbonitrile]: the IC50 turned out to be 551 nM in test [1] and 186 nM in test [2].

With `Cn1ccc(Nc2ncc(Cl)c(N3C[C@]4(C)CN(C(=O)C5CC5)C[C@]4(C)C3)n2)n1` [Compound 94, ((3aR,6aS)-5-(5-chloro-2-((1-methyl-1H-pyrazol-3-yl)amino)pyrimidin-4-yl)-3a,6a-dimethylhexahydropyrrolo[3,4-c]pyrrol-2(1H)-yl)(cyclopropyl)methanone], the IC50 in test [1] was found to be 34 nM; in test [2] it was 224 nM.

As for `CCOC(=O)N1C[C@@]2(C)CN(c3ccnc(Nc4cnn(C)c4)n3)C[C@@]2(C)C1` [Compound 6, ethyl (3aR,6aS)-3a,6a-dimethyl-5-(2-((1-methyl-1H-pyrazol-4-yl)amino)pyrimidin-4-yl)hexahydropyrrol[3,4-c]pyrrole-2(1H)-carboxylate], the IC50 in test [1] amounted to 113 nM; in test [2], 127 nM.

For `Cn1cc(Nc2nccc(N3C[C@]4(C)CN(C(=O)C5CC5)C[C@]4(C)C3)n2)cn1` [Compound 1, cyc1opropyl((3aR,6aS)-3a,6a-dimethyl-5-(2((1-methyl-1H-pyrazol-4-yl)amino)pyrimidin-4-yl)hexahydropyrrolo[3,4-c]pyrrol-2(1H)-yl)methanone], the IC50 in test [1] amounted to 319 nM; in test [2] it was 125 nM.

Turning to `Cn1cc(Nc2nccc(N3C[C@]4(C)CN(C(=O)NCC#N)C[C@]4(C)C3)n2)cn1` [Compound 8, (3aR,6aS)-N-(cyanomethyl)-3a,6a-dimethyl-5-(2-((1-methyl-IH-pyrazol-4-yl)amino)pyrimidin-4-yl)hexahydropyrrolo[3,4-c]pyrrole-2(1H)-carboxamide], the IC50 in test [1] was found to be 25 nM; in test [2] it was 66 nM.
